Laboratory results taken from publication PMC7399337, “Biological Properties and Absolute Configuration of Flavanones From Calceolaria thyrsiflora Graham” (Frontiers in Pharmacology, 2020).
≈ marks a conversion by molar mass, not a printed value.

How the values were obtained:
[1] = system: A. tumefaciens; assay: Antibacterial MIC, broth microdilution, phytopathogens; type: cell-based; details: Agrobacterium tumefaciens; GN A. tumefaciens; 24 h; tested 12.5 to 1,600 µg/ml; read-out: Minimum inhibitory concentration (MIC)
Description: (§1) The minimum inhibitory concentrations (MIC) were determined using the broth microdilution method ([Díaz et al., 2018]). Two-fold serial dilutions were added to the wells of sterile 96-well plates containing inoculated BBL™ Mueller Hinton II Broth medium suspensions of bacterial cells (1.0 x10^5 UFC/ml) of Agrobacterium tumefaciens and Bacillus subtilis. The final concentrations ranged from 12.5 to 1,600 µg/ml. Ethanol (1%) was used as the negative control and chloramphenicol (CALBIOCHEM; U.S. and Canada) was used as the positive control against both bacteria. MICs were determined according to the OD600 obtained in a Thermo Scientific Multiskan GO 96-well plate photometer. […] Assays were done in triplicate.

[2] = system: B. subtilis; assay: as above; type: cell-based; details: Bacillus subtilis; GP B. subtilis; 24 h; tested 12.5 to 1,600 µg/ml; read-out: Minimum inhibitory concentration (MIC)
Description: as §1

MIC [1]: 12.5 µg/mL (≈ 38.7 µM)
MIC [2]: 12.5 µg/mL (≈ 38.7 µM)
SMILES: O=C(N[C@H](CO)[C@H](O)c1ccc([N+](=O)[O-])cc1)C(Cl)Cl [Chloramphenicol]
